Target: PI3Kδ (p110δ/p85α) (Homo sapiens (Human), UniProt O00329)
Assay: PI3Kδ scintillation proximity assay (Example A3)
Type: biochemical
Conditions: 20 μM ATP, 20 μM PIP2, 4 nM PI3Kδ; read-out: PI3Kδ SPA IC50
In short: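 IC50 derived by fitting percent control activity against log inhibitor concentration. Radiolabelled product was measured by scintillation counting on WGA SPA beads after overnight shaking. The kinase reaction used 4 nM p110δ/p85α, 20 μM ATP (with [γ-33P]ATP) and 20 μM PIP2 at pH 6.7 and room temperature, with 0.5% DMSO final.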

Sequence of PI3Kδ (p110δ/p85α) (O00329 whole entry): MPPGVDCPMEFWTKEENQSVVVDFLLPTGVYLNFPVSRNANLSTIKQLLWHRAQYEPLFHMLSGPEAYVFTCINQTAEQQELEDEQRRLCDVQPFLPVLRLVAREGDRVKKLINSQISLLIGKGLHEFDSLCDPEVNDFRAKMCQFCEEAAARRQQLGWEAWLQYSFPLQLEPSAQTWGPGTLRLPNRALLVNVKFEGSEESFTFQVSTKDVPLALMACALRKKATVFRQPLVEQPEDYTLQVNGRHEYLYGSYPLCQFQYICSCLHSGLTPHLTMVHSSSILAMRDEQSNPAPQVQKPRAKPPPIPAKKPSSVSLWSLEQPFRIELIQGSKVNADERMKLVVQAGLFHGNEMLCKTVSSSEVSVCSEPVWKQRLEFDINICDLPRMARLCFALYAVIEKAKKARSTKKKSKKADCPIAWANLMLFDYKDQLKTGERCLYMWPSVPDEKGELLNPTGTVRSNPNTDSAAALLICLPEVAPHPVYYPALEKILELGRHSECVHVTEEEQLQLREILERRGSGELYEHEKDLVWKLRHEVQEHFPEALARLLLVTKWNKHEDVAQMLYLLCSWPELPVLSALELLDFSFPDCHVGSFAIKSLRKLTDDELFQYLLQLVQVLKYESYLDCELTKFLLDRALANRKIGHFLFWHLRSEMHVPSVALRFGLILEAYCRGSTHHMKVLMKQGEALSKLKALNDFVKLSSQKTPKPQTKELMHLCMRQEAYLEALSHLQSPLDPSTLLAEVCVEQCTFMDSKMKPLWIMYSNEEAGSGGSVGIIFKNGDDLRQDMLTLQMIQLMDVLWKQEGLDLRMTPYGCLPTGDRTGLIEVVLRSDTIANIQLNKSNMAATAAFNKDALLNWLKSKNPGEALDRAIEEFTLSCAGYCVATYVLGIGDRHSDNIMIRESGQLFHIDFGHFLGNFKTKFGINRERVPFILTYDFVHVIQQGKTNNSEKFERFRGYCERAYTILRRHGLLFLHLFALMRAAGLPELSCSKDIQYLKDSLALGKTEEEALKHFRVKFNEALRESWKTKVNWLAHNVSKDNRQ
Sequence of PI3Kδ (p110δ/p85α) (P27986 whole entry partner): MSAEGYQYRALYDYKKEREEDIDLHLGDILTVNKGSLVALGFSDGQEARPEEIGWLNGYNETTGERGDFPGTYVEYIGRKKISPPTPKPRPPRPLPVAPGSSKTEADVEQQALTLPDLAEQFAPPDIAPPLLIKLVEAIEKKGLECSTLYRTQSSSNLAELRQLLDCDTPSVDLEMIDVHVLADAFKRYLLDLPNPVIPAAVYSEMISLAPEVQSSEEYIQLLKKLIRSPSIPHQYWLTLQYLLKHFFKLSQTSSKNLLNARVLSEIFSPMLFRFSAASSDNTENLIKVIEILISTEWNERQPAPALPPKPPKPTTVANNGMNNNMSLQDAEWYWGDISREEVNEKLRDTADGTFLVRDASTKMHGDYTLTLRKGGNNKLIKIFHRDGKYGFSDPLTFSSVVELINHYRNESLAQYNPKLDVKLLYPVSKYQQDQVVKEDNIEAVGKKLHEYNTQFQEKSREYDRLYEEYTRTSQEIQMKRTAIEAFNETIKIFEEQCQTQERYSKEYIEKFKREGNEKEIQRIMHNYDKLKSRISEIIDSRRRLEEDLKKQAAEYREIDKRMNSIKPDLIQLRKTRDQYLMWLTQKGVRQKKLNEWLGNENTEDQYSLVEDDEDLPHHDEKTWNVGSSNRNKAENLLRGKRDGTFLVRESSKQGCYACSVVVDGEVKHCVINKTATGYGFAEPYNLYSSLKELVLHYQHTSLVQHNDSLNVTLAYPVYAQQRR

Row | IC50 [nM] | SMILES
1 | ≤ 10 | CCOc1c(C(C)n2nc(C)c3c(N)ncnc32)cc(Cl)c(C#N)c1C1CN(C(=O)C(C)(C)C)C1 (single isomer, unassigned) [Example 245, 4-[1-(4-Amino-3-methyl-1H-pyrazolo[3,4-d]pyrimidin-1-yl)ethyl]-6-chloro-2-[1-(2,2-dimethylpropanoyl)azetidin-3-yl]-3-ethoxybenzonitrile]
2 | ≤ 10 | CCOc1c(C(C)n2nc(C)c3c(N)ncnc32)cc(Cl)c(C#N)c1C1CN(C(=O)C2CC2)C1 (single isomer, unassigned) [Example 246, 4-[1-(4-Amino-3-methyl-1H-pyrazolo[3,4-d]pyrimidin-1-yl)ethyl]-6-chloro-2-[1-(cyclopropylcarbonyl)azetidin-3-yl]-3-ethoxybenzonitrile]
3 | ≤ 10 | CCOc1c(C(C)n2nc(C)c3c(N)ncnc32)cc(Cl)c(C#N)c1C1CN(S(=O)(=O)C(C)C)C1 (single isomer, unassigned) [Example 250, 4-[1-(4-Amino-3-methyl-1H-pyrazolo[3,4-d]pyrimidin-1-yl)ethyl]-6-chloro-3-ethoxy-2-[1-(isopropylsulfonyl)azetidin-3-yl]benzonitrile]
4 | ≤ 10 | CCOc1c(C(C)n2nc(C)c3c(N)ncnc32)cc(Cl)c(C#N)c1C1CN(S(=O)(=O)C2CC2)C1 (single isomer, unassigned) [Example 251, 4-[1-(4-Amino-3-methyl-1H-pyrazolo[3,4-d]pyrimidin-1-yl)ethyl]-6-chloro-2-[1-(cyclopropylsulfonyl)azetidin-3-yl]-3-ethoxybenzonitrile]
5 | ≤ 10 | CCOc1c(C(C)n2nc(C)c3c(N)ncnc32)cc(Cl)c(C#N)c1C1CN(C(=O)OC)C1 (single isomer, unassigned) [Example 252, Methyl 3-{3-[1-(4-amino-3-methyl-1H-pyrazolo[3,4-d]pyrimidin-1-yl)ethyl]-5-chloro-6-cyano-2-ethoxyphenyl}azetidine-1-carboxylate]
6 | ≤ 10 | CCOC(=O)N1CC(c2c(C#N)c(Cl)cc(C(C)n3nc(C)c4c(N)ncnc43)c2OCC)C1 (single isomer, unassigned) [Example 253, Ethyl 3-{3-[1-(4-amino-3-methyl-1H-pyrazolo[3,4-d]pyrimidin-1-yl)ethyl]-5-chloro-6-cyano-2-ethoxyphenyl}azetidine-1-carboxylate]
7 | ≤ 10 | CCOc1c(C(C)n2nc(C)c3c(N)ncnc32)cc(Cl)c(C#N)c1C1CN(C(=O)NC(C)(C)C)C1 (single isomer, unassigned) [Example 255, 3-{3-[1-(4-Amino-3-methyl-1H-pyrazolo[3,4-d]pyrimidin-1-yl)ethyl]-5-chloro-6-cyano-2-ethoxyphenyl}-N-(tert-butyl)azetidine-1-carboxamide]
8 | ≤ 10 | CCOc1c(C(C)n2nc(C)c3c(N)ncnc32)cc(Cl)c(C#N)c1C1CN(C(N)=O)C1 (single isomer, unassigned) [Example 256, 3-{3-[1-(4-Amino-3-methyl-1H-pyrazolo[3,4-d]pyrimidin-1-yl)ethyl]-5-chloro-6-cyano-2-ethoxyphenyl}azetidine-1-carboxamide]
9 | ≤ 10 | CCNC(=O)N1CC(c2c(C#N)c(Cl)cc(C(C)n3nc(C)c4c(N)ncnc43)c2OCC)C1 (single isomer, unassigned) [Example 258, 3-{3-[1-(4-Amino-3-methyl-1H-pyrazolo[3,4-d]pyrimidin-1-yl)ethyl]-5-chloro-6-cyano-2-ethoxyphenyl}-N-ethylazetidine-1-carboxamide]
10 | ≤ 10 | CCOc1c(C(C)n2nc(C)c3c(N)ncnc32)cc(Cl)c(C#N)c1C1CN(C(=O)N(C)C)C1 (single isomer, unassigned) [Example 259, 3-{3-[1-(4-Amino-3-methyl-1H-pyrazolo[3,4-d]pyrimidin-1-yl)ethyl]-5-chloro-6-cyano-2-ethoxyphenyl}-N,N-dimethylazetidine-1-carboxamide]
11 | ≤ 10 | CCN1CC(c2c(C#N)c(Cl)cc(C(C)n3nc(C)c4c(N)ncnc43)c2OC)C1 (single isomer, unassigned) [Example 263, 4-[1-(4-Amino-3-methyl-1H-pyrazolo[3,4-d]pyrimidin-1-yl)ethyl]-6-chloro-2-(1-ethylazetidin-3-yl)-3-methoxybenzonitrile]
12 | ≤ 10 | COc1c(C(C)n2nc(C)c3c(N)ncnc32)cc(Cl)c(C#N)c1C1CN(CC(C)C)C1 (single isomer, unassigned) [Example 265, 4-[1-(4-Amino-3-methyl-1H-pyrazolo[3,4-d]pyrimidin-1-yl)ethyl]-6-chloro-2-(1-isobutylazetidin-3-yl)-3-methoxybenzonitrile]
13 | ≤ 10 | COc1c(C(C)n2nc(C)c3c(N)ncnc32)cc(Cl)c(C#N)c1C1CN(CC2CC2)C1 (single isomer, unassigned) [Example 266, 4-[1-(4-Amino-3-methyl-1H-pyrazolo[3,4-d]pyrimidin-1-yl)ethyl]-6-chloro-2-[1-(cyclopropylmethyl)azetidin-3-yl]-3-methoxybenzonitrile]
14 | ≤ 10 | COc1c(C(C)n2nc(C)c3c(N)ncnc32)cc(Cl)c(C#N)c1C1CN(C2CCC2)C1 (single isomer, unassigned) [Example 267, 4-[1-(4-Amino-3-methyl-1H-pyrazolo[3,4-d]pyrimidin-1-yl)ethyl]-6-chloro-2-(1-cyclobutylazetidin-3-yl)-3-methoxybenzonitrile]
15 | ≤ 10 | COc1c(C(C)n2nc(C)c3c(N)ncnc32)cc(Cl)c(C#N)c1C1CN(CC2CCOCC2)C1 (single isomer, unassigned) [Example 280, 4-[1-(4-Amino-3-methyl-1H-pyrazolo[3,4-d]pyrimidin-1-yl)ethyl]-6-chloro-3-methoxy-2-[1-(tetrahydro-2H-pyran-4-ylmethyl)azetidin-3-yl]benzonitrile]
16 | ≤ 10 | CCC(=O)N1CC(c2c(C#N)c(Cl)cc(C(C)n3nc(C)c4c(N)ncnc43)c2OC)C1 (single isomer, unassigned) [Example 282, 4-[1-(4-Amino-3-methyl-1H-pyrazolo[3,4-d]pyrimidin-1-yl)ethyl]-6-chloro-3-methoxy-2-(1-propionylazetidin-3-yl)benzonitrile]
17 | ≤ 10 | COc1c(C(C)n2nc(C)c3c(N)ncnc32)cc(Cl)c(C#N)c1C1CN(C(=O)C(C)C)C1 (single isomer, unassigned) [Example 283, 4-[1-(4-Amino-3-methyl-1H-pyrazolo[3,4-d]pyrimidin-1-yl)ethyl]-6-chloro-2-(1-isobutyrylazetidin-3-yl)-3-methoxybenzonitrile]
18 | ≤ 10 | COc1c(C(C)n2nc(C)c3c(N)ncnc32)cc(Cl)c(C#N)c1C1CN(C(=O)C2CC2)C1 (single isomer, unassigned) [Example 284, 4-[1-(4-Amino-3-methyl-1H-pyrazolo[3,4-d]pyrimidin-1-yl)ethyl]-6-chloro-2-[1-(cyclopropylcarbonyl)azetidin-3-yl]-3-methoxybenzonitrile]
19 | ≤ 10 | CCS(=O)(=O)N1CC(c2c(C#N)c(Cl)cc(C(C)n3nc(C)c4c(N)ncnc43)c2OC)C1 (single isomer, unassigned) [Example 286, 4-[1-(4-Amino-3-methyl-1H-pyrazolo[3,4-d]pyrimidin-1-yl)ethyl]-6-chloro-2-[1-(ethylsulfonyl)azetidin-3-yl]-3-methoxybenzonitrile]
